{"source": "patent US20220168276A1", "about": "“Mehods and Compositions for Treating SARS-CoV-2 Infection using Carboxyamidotriazole Orotate” (priority 2020, published 2022)", "key": {"[1]": {"system": "imatinib mesylate-resistant chronic myeloid leukemia cells", "details": "by down-regulating bcr-abl; cited from earlier work"}, "[2]": {"details": "cited from earlier work"}, "[3]": {"system": "human T-cells", "details": "cited from earlier work"}, "[4]": {"details": "in vivo; cited from earlier work"}, "[5]": {"system": "SARS-CoV-2", "details": "Vero E6 cells"}, "[6]": {"system": "non-infected Vero E6 cells", "format": "cell-based", "details": "cell viability, read-out: EC 50 in non-infected Vero E6 cells"}, "[7]": {"system": "Cytokines in plasma", "assay": "Phase I trial of CTO in cancer patients: plasma cytokine levels by Milliplex/Luminex panel", "format": "in vivo, human", "parameters": "key to GM-CSF plasma level / IFNα2 plasma level / IFNγ plasma level / IL-10 plasma level / IL-12p40 plasma level / IL-12p70 plasma level / IL-13 plasma level / IL-15 plasma level / IL-17A plasma level / IL-1RA plasma level / IL-2 plasma level / IL-4 plasma level / IL-6 plasma level / IL-8 plasma level / IP-10 plasma level / MIP1a plasma level / RANTES plasma level / IL-1β plasma level / TNFα plasma level / VEGF plasma level / EGF plasma level: + increased; − decreased", "method": "Such an approach described above is based on unexpected findings when CTO was given to cancer patients who volunteered to participate in Phase I clinical studies of CTO to establish its safety and tolerability.\nIn a Phase I trial of CTO testing the safety and tolerability of CTO in cancer patients, Plasa samples were obtained from three patients after administration of different doses of CTO daily as follows: 1) NSCLC Patient 002-46 (CTO 555 mg/m2), 2) NSCLC Patient 002-50 (CTO 427 mg/m2) and 3) Ovarian Cancer Patient 002-53(CTO 427 mg/m2) The levels of cytokines were measured by using the HCYTMAG-60K-PX30/Milliplex MAP Human Cytokine/Chemokine Magnetic Bead Panel from Milliplex, USA."}, "[8]": {"system": "Akt and Erk1/2 phosphorylation", "details": "exosomes stimulated HUVEC cell; cited from earlier work"}, "[9]": {"system": "SARS-CoV-2", "format": "in vivo", "details": "one patient, 600 mg daily oral, second day"}, "[10]": {"details": "cancer patients, CTO 427-555 mg/m2 daily, vs baseline"}}, "note": "“Also recorded” adds a separate entry of the source.", "data": [{"smiles": "NC(=O)c1nnn(Cc2cc(Cl)c(C(=O)c3ccc(Cl)cc3)c(Cl)c2)c1N", "note": "[CAI, carboxyamidotriazole]", "values": [{"measurement": "apoptosis", "setting": "[1]", "value": "induces apoptosis"}, {"measurement": "colitis scored macroscopically and microscopically", "setting": "[2]; animals", "value": "inhibited"}, {"measurement": "NF-kB activation", "setting": "[2]; in vivo", "value": "prevented"}, {"measurement": "production of fibrinogenic cytokine transforming growth factor β", "setting": "[2]; in vivo", "value": "inhibited"}, {"measurement": "production of TNF-α, IL-1β and IL-6", "setting": "[2]; serum, supernatant of peritoneal macrophages and lamina propria", "value": "inhibited"}, {"measurement": "calcium influx and HIV LTR transcription dependent on it", "setting": "[3]", "value": "modulated"}, {"measurement": "TNF-α and IL-1β at the site of inflammation and in serum", "setting": "[4]", "value": "decreased"}, {"measurement": "vascular permeability stimulated by VEGF or histamine", "setting": "[4]", "value": "inhibited"}]}, {"smiles": "NC(=O)c1nnn(Cc2cc(Cl)c(C(=O)c3ccc(Cl)cc3)c(Cl)c2)c1N.O=C(O)c1cc(=O)[nH]c(=O)[nH]1", "note": "[CTO, 5-amino-1-(4-(4-chlorobenzyl)-1,2,3-triazole-4-carboxamide orotate]", "values": [{"measurement": "IC50", "setting": "[5]; read-out: IC50, cytopathic effect (CPE) for SARS-CoV-2, 72 hours post-inoculation, 20 μM highest dose tested", "value": "> 20", "unit": "µM"}, {"measurement": "EC50", "setting": "[6]", "value": 14.9, "unit": "µM"}]}, {"smiles": "NC(=O)c1nnn(Cc2cc(Cl)c(C(=O)c3ccc(Cl)cc3)c(Cl)c2)c1N.O=C(O)c1cc(=O)[nH]c(=O)[nH]1", "note": "[CTO]", "values": [{"measurement": "EGF plasma level", "setting": "[7]; [10]", "value": "EGF- (+)"}, {"measurement": "GM-CSF plasma level", "setting": "[7]; [10]", "value": "GM-CSF- (−)"}, {"measurement": "IFNα2 plasma level", "setting": "[7]; [10]", "value": "IFNα2- (+)"}, {"measurement": "IFNγ plasma level", "setting": "[7]; [10]", "value": "IFNγ- (−)"}, {"measurement": "IL-1RA plasma level", "setting": "[7]; [10]", "value": "IL-1RA- (−)"}, {"measurement": "IL-1β plasma level", "setting": "[7]; [10]", "value": "**IL-1β- (−)"}, {"measurement": "IL-2 plasma level", "setting": "[7]; [10]", "value": "IL-2- (−)"}, {"measurement": "IL-4 plasma level", "setting": "[7]; [10]", "value": "IL-4- (−)"}, {"measurement": "IL-6 plasma level", "setting": "[7]; [10]", "value": "IL-6- (−)"}, {"measurement": "IL-8 plasma level", "setting": "[7]; [10]", "value": "IL-8-(−)"}, {"measurement": "IL-10 plasma level", "setting": "[7]; [10]", "value": "IL-10- (+)"}, {"measurement": "IL-12p40 plasma level", "setting": "[7]; [10]", "value": "IL-12p40- (+)"}, {"measurement": "IL-12p70 plasma level", "setting": "[7]; [10]", "value": "IL-12p70- (−)"}, {"measurement": "IL-13 plasma level", "setting": "[7]; [10]", "value": "IL-13-(−)"}, {"measurement": "IL-15 plasma level", "setting": "[7]; [10]", "value": "IL-15- (−)"}, {"measurement": "IL-17A plasma level", "setting": "[7]; [10]", "value": "IL-17A- (−)"}, {"measurement": "IP-10 plasma level", "setting": "[7]; [10]", "value": "IP-10- (−)"}, {"measurement": "MIP1a plasma level", "setting": "[7]; [10]", "value": "MIP1a- (−)"}, {"measurement": "RANTES plasma level", "setting": "[7]; [10]", "value": "RANTES- (+)"}, {"measurement": "TNFα plasma level", "setting": "[7]; [10]", "value": "**TNFα- (−)"}, {"measurement": "VEGF plasma level", "setting": "[7]; [10]", "value": "VEGF- (−)"}, {"measurement": "levels of cytokines including EGF, IFN α2, IL-10, IL-12p40", "setting": "[7]; plasma, CTO 427 mg/m2 to 555 mg/m2", "value": "increase"}, {"measurement": "levels of several cytokines including VEGF, GM-CSF, INF-γ, IL-2, IL-12p70, IL-13, IL-15, IL-17a, IL-1RA, IL-1α, IL-2, IL1-4, IL-6, IL-8, il-10, MIP1-α, IL-1β, TNF-α", "setting": "[7]; plasma, CTO 427 mg/m2 to 555 mg/m2, forty-eight hours interval after CTO, vs baseline", "value": "reduced; also recorded: reduction"}, {"measurement": "concentration up to which CTO inhibited replication of SARS-CoV-2", "setting": "[5]", "value": "up to 5 μM"}, {"measurement": "cell viability", "setting": "[5]; CTO up to 5 μM", "value": "above 90%"}, {"measurement": "Maximum % Inhibition of CPE", "setting": "[5]; recorded <20 μM concentration", "value": 29.03, "unit": "%"}, {"measurement": "Akt and Erk1/2 phosphorylation", "setting": "[8]", "value": "inhibits"}, {"measurement": "COVID-19 symptoms", "setting": "[9]", "value": "great improvement in most of the symptoms"}, {"measurement": "body weight", "setting": "[9]; lost twelve pounds before treatment", "value": "remained at constant weight"}]}]}
